Measurements published in the NIST ThermoML archive (doi:10.1016/j.jct.2013.09.028).
Numbers after ± are expanded uncertainties.

Assays:
[1] = 101.33 kPa, Liquid; for viscosity: Capillary tube (Ostwald / Ubbelohde) method; for speed of sound: Sing-around technique in a fixed-path interferometer; for mass density: Vibrating tube method
[2] = refractive index (Na D-line) (dimensionless); details: 101.33 kPa, Liquid, Standard Abbe refractometry

SMILES	viscosity ([1]; 298.15 K) [mPa·s]	speed of sound ([1]; 298.15 K) [m/s]	mass density ([1]; 298.15 K) [kg/m3]	viscosity ([1]; 303.15 K) [mPa·s]	speed of sound ([1]; 303.15 K) [m/s]	mass density ([1]; 303.15 K) [kg/m3]	viscosity ([1]; 308.15 K) [mPa·s]	speed of sound ([1]; 308.15 K) [m/s]	mass density ([1]; 308.15 K) [kg/m3]	viscosity ([1]; 313.15 K) [mPa·s]	speed of sound ([1]; 313.15 K) [m/s]	mass density ([1]; 313.15 K) [kg/m3]	viscosity ([1]; 318.15 K) [mPa·s]	speed of sound ([1]; 318.15 K) [m/s]	mass density ([1]; 318.15 K) [kg/m3]	viscosity ([1]; 323.15 K) [mPa·s]	speed of sound ([1]; 323.15 K) [m/s]	mass density ([1]; 323.15 K) [kg/m3]	viscosity ([1]; 328.15 K) [mPa·s]	speed of sound ([1]; 328.15 K) [m/s]	other results
CCCCCC[n+]1cc(C)cc(C)c1C.O=S(=O)([N-]S(=O)(=O)C(F)(F)F)C(F)(F)F	174 ± 5	1288 ± 2	1336.18 ± 0.52	129 ± 4	1276 ± 2	1331.83 ± 0.51	98.2 ± 2.5	1264 ± 2	1327.48 ± 0.51	76.2 ± 1.8	1252 ± 2	1323.15 ± 0.51	60.2 ± 1.4	1240 ± 2	1318.83 ± 0.5	48.3 ± 1.1	1229 ± 2	1314.52 ± 0.5	39.3 ± 0.9	1218 ± 2	mass density ([1]; 328.15 K): 1310.23 ± 0.49 kg/m3; viscosity ([1]; 333.15 K): 32.4 ± 0.7 mPa·s; speed of sound ([1]; 333.15 K): 1206 ± 2 m/s; mass density ([1]; 333.15 K): 1305.85 ± 0.49 kg/m3; viscosity ([1]; 338.15 K): 27.1 ± 0.6 mPa·s; speed of sound ([1]; 338.15 K): 1195 ± 2 m/s; mass density ([1]; 338.15 K): 1301.66 ± 0.49 kg/m3; viscosity ([1]; 343.15 K): 23 ± 0.5 mPa·s; speed of sound ([1]; 343.15 K): 1184 ± 2 m/s; mass density ([1]; 343.15 K): 1297.4 ± 0.48 kg/m3; refractive index ([2]; 298.15 K): 1.46466 ± 0.00037; refractive index ([2]; 303.15 K): 1.46311 ± 0.00037; refractive index ([2]; 308.15 K): 1.4615 ± 0.00037; refractive index ([2]; 313.15 K): 1.4599 ± 0.00037; refractive index ([2]; 318.15 K): 1.45826 ± 0.00037; refractive index ([2]; 323.15 K): 1.45671 ± 0.00037; refractive index ([2]; 328.15 K): 1.45514 ± 0.00037; refractive index ([2]; 333.15 K): 1.45357 ± 0.00037; refractive index ([2]; 338.15 K): 1.452 ± 0.00037; refractive index ([2]; 343.15 K): 1.45044 ± 0.00037
CCCCCC[n+]1cc(C)cc(C)c1CCCCC.O=S(=O)([N-]S(=O)(=O)C(F)(F)F)C(F)(F)F	278 ± 10	1291 ± 2	1253.47 ± 0.44	204 ± 7	1277 ± 2	1249.29 ± 0.44	151 ± 4	1264 ± 2	1245.09 ± 0.44	115 ± 3	1251 ± 2	1240.9 ± 0.43	88.5 ± 2.2	1238 ± 2	1236.71 ± 0.43	69.6 ± 1.6	1225 ± 2	1232.53 ± 0.42	55.7 ± 1.3	1213 ± 2	mass density ([1]; 328.15 K): 1228.37 ± 0.42 kg/m3; viscosity ([1]; 333.15 K): 45.2 ± 1 mPa·s; speed of sound ([1]; 333.15 K): 1201 ± 2 m/s; mass density ([1]; 333.15 K): 1224.22 ± 0.42 kg/m3; viscosity ([1]; 338.15 K): 37.1 ± 0.8 mPa·s; speed of sound ([1]; 338.15 K): 1188 ± 2 m/s; mass density ([1]; 338.15 K): 1220.07 ± 0.41 kg/m3; viscosity ([1]; 343.15 K): 30.9 ± 0.7 mPa·s; speed of sound ([1]; 343.15 K): 1176 ± 2 m/s; mass density ([1]; 343.15 K): 1215.94 ± 0.41 kg/m3; refractive index ([2]; 298.15 K): 1.46074 ± 0.00037; refractive index ([2]; 303.15 K): 1.4591 ± 0.00037; refractive index ([2]; 308.15 K): 1.45746 ± 0.00037; refractive index ([2]; 313.15 K): 1.45583 ± 0.00037; refractive index ([2]; 318.15 K): 1.45417 ± 0.00037; refractive index ([2]; 323.15 K): 1.45255 ± 0.00037; refractive index ([2]; 328.15 K): 1.45093 ± 0.00037; refractive index ([2]; 333.15 K): 1.4493 ± 0.00037; refractive index ([2]; 338.15 K): 1.44769 ± 0.00037; refractive index ([2]; 343.15 K): 1.44607 ± 0.00037
CCCCCc1c(C)cc(C)c[n+]1CCCC.O=S(=O)([N-]S(=O)(=O)C(F)(F)F)C(F)(F)F	253 ± 9	1293 ± 2	1288.23 ± 0.47	186 ± 6	1279 ± 2	1283.93 ± 0.47	138 ± 4	1266 ± 2	1279.63 ± 0.47	105 ± 3	1253 ± 2	1275.33 ± 0.46	80.8 ± 2	1240 ± 2	1271.04 ± 0.46	63.7 ± 1.5	1228 ± 2	1266.77 ± 0.46	51 ± 1.1	1215 ± 2	mass density ([1]; 328.15 K): 1262.51 ± 0.45 kg/m3; viscosity ([1]; 333.15 K): 41.5 ± 0.9 mPa·s; speed of sound ([1]; 333.15 K): 1203 ± 2 m/s; mass density ([1]; 333.15 K): 1258.26 ± 0.45 kg/m3; viscosity ([1]; 338.15 K): 34.2 ± 0.8 mPa·s; speed of sound ([1]; 338.15 K): 1191 ± 2 m/s; mass density ([1]; 338.15 K): 1254.01 ± 0.44 kg/m3; viscosity ([1]; 343.15 K): 28.6 ± 0.6 mPa·s; speed of sound ([1]; 343.15 K): 1179 ± 2 m/s; mass density ([1]; 343.15 K): 1249.77 ± 0.44 kg/m3; refractive index ([2]; 298.15 K): 1.4604 ± 0.00037; refractive index ([2]; 303.15 K): 1.45878 ± 0.00037; refractive index ([2]; 308.15 K): 1.45714 ± 0.00037; refractive index ([2]; 313.15 K): 1.45549 ± 0.00037; refractive index ([2]; 318.15 K): 1.45386 ± 0.00037; refractive index ([2]; 323.15 K): 1.45226 ± 0.00037; refractive index ([2]; 328.15 K): 1.45065 ± 0.00037; refractive index ([2]; 333.15 K): 1.44902 ± 0.00037; refractive index ([2]; 338.15 K): 1.44744 ± 0.00037; refractive index ([2]; 343.15 K): 1.44588 ± 0.00037
CCCCCc1c(C)cc(C)c[n+]1CC.O=S(=O)([N-]S(=O)(=O)C(F)(F)F)C(F)(F)F	260 ± 9	1309 ± 2	1323.9 ± 0.51	187 ± 6	1296 ± 2	1319.56 ± 0.5	138 ± 4	1283 ± 2	1315.21 ± 0.5	104 ± 3	1270 ± 2	1310.86 ± 0.49	79.9 ± 1.9	1258 ± 2	1306.53 ± 0.49	62.8 ± 1.4	1245 ± 2	1302.2 ± 0.49	50.1 ± 1.1	1233 ± 2	mass density ([1]; 328.15 K): 1297.9 ± 0.48 kg/m3; viscosity ([1]; 333.15 K): 40.7 ± 0.9 mPa·s; speed of sound ([1]; 333.15 K): 1221 ± 2 m/s; mass density ([1]; 333.15 K): 1293.6 ± 0.48 kg/m3; viscosity ([1]; 338.15 K): 33.5 ± 0.7 mPa·s; speed of sound ([1]; 338.15 K): 1209 ± 2 m/s; mass density ([1]; 338.15 K): 1289.3 ± 0.48 kg/m3; viscosity ([1]; 343.15 K): 28 ± 0.6 mPa·s; speed of sound ([1]; 343.15 K): 1198 ± 2 m/s; mass density ([1]; 343.15 K): 1285.03 ± 0.47 kg/m3; refractive index ([2]; 298.15 K): 1.46108 ± 0.00037; refractive index ([2]; 303.15 K): 1.45947 ± 0.00037; refractive index ([2]; 308.15 K): 1.45787 ± 0.00037; refractive index ([2]; 313.15 K): 1.45627 ± 0.00037; refractive index ([2]; 318.15 K): 1.45463 ± 0.00037; refractive index ([2]; 323.15 K): 1.45304 ± 0.00037; refractive index ([2]; 328.15 K): 1.45139 ± 0.00037; refractive index ([2]; 333.15 K): 1.44979 ± 0.00037; refractive index ([2]; 338.15 K): 1.44822 ± 0.00037; refractive index ([2]; 343.15 K): 1.44667 ± 0.00037
